Source: ChEMBL document CHEMBL3885881, “DrugMatrix”

Organism: Rattus norvegicus
Assay: DrugMatrix - Regimen: Daily Repeat
Assay type: toxicity, organism-based, Sprague-Dawley
Set-up: regimen Daily Repeat, gender Male, age 6-8 weeks
Settings: in vivo, sc, route subcutaneous, […]; for ABSOLUTE BASOPHIL / ABSOLUTE EOSINOPHIL / ABSOLUTE LYMPHOCYTE / ABSOLUTE MONOCYTE / ABSOLUTE SEGMENTED NEUTROPHIL / BASOPHIL / EOSINOPHIL / ERYTHROCYTE COUNT / HEMATOCRIT / HEMOGLOBIN / LEUKOCYTE COUNT / LYMPHOCYTE / MEAN CORPUSCULAR HEMOGLOBIN / MEAN CORPUSCULAR HEMOGLOBIN CONCENTRATION / MEAN CORPUSCULAR VOLUME / MONOCYTE / NEUTROPHIL / NUCLEATED RED BLOOD CELLS / PLATELET COUNT: tissue Blood; for ALANINE AMINOTRANSFERASE / ALBUMIN / ALKALINE PHOSPHATASE / ASPARTATE AMINOTRANSFERASE / BLOOD UREA NITROGEN / CARBON DIOXIDE / CHLORIDE / CHOLESTEROL / CREATINE PHOSPHOKINASE / CREATININE / GLUCOSE / LACTATE DEHYDROGENASE / LIPASE / PHOSPHORUS / POTASSIUM / SODIUM / TOTAL BILIRUBIN / TOTAL PROTEIN / URIC ACID: tissue Plasma
[1] = 0 mg/kg, 72 h, dose level Control, time 3 day
[2] = 0 mg/kg, 120 h, dose level Control, time 5 day
[3] = 56 mg/kg, 72 h, dose level M1, time 3 day

`O=C(Nc1ccc(Br)cc1)c1cc(Br)cc(Br)c1O` [TRIBROMSALAN] was tested, and the “ABSOLUTE BASOPHIL” value [1] was 0 CELLS/uL, the “ABSOLUTE EOSINOPHIL” value [1] was 42.67 CELLS/uL and the “ABSOLUTE LYMPHOCYTE” value [1] was 10202 CELLS/uL. For the same compound, the “ABSOLUTE MONOCYTE” value [1] was 261.5 CELLS/uL, the “ABSOLUTE SEGMENTED NEUTROPHIL” value [1] was 2193.83 CELLS/uL and the BASOPHIL [1] was 0%. The EOSINOPHIL [1] was 0.33%, the “ERYTHROCYTE COUNT” value [1] was 5.63 x10E6/uL and the HEMATOCRIT [1] was 35.35%. The HEMOGLOBIN [1] was 13.07 G/DL, the “LEUKOCYTE COUNT” value [1] was 12.7 x10E3/uL and the LYMPHOCYTE [1] was 81.17%. The “MEAN CORPUSCULAR HEMOGLOBIN” value [1] was 23.23 pg, the “MEAN CORPUSCULAR HEMOGLOBIN CONCENTRATION” value [1] was 36.97 G/DL and the “MEAN CORPUSCULAR VOLUME” value [1] was 62.82 fL. The MONOCYTE [1] was 2%, the NEUTROPHIL [1] was 16.5% and the “NUCLEATED RED BLOOD CELLS” value [1] was 0 /100WBC. The “PLATELET COUNT” value [1] was 1180.33 x10E3/uL, the “ALANINE AMINOTRANSFERASE” value [1] was 48.67 u/L and the ALBUMIN [1] was 4.08 G/DL. For the same compound, the “ALKALINE PHOSPHATASE” value [1] was 360.67 u/L, the “ASPARTATE AMINOTRANSFERASE” value [1] was 85.5 u/L and the “BLOOD UREA NITROGEN” value [1] was 17.83 mg/dL. For the same compound, the “CARBON DIOXIDE” value [1] was 26.17 mmol/L, the CHLORIDE [1] was 101.83 MEQ/L and the CHOLESTEROL [1] was 71 mg/dL. The “CREATINE PHOSPHOKINASE” value [1] was 515.17 u/L, the CREATININE [1] was 0.22 mg/dL and the GLUCOSE [1] was 192.5 mg/dL. For the same compound, the “LACTATE DEHYDROGENASE” value [1] was 214.67 u/L, the LIPASE [1] was 8.5 u/L and the PHOSPHORUS [1] was 12.95 mg/dL. For the same compound, the POTASSIUM [1] was 6.39 MEQ/L, the SODIUM [1] was 142.38 MEQ/L and the “TOTAL BILIRUBIN” value [1] was 0.18 mg/dL. For the same compound, the “TOTAL PROTEIN” value [1] was 5.95 G/DL, the “URIC ACID” value [1] was 1.83 mg/dL and the “ABSOLUTE BASOPHIL” value [2] was 0 CELLS/uL. For the same compound, the “ABSOLUTE EOSINOPHIL” value [2] was 188.5 CELLS/uL, the “ABSOLUTE LYMPHOCYTE” value [2] was 12360.83 CELLS/uL and the “ABSOLUTE MONOCYTE” value [2] was 64.33 CELLS/uL. For the same compound, the “ABSOLUTE SEGMENTED NEUTROPHIL” value [2] was 1986.33 CELLS/uL, the BASOPHIL [2] was 0% and the EOSINOPHIL [2] was 1.33%. For the same compound, the “ERYTHROCYTE COUNT” value [2] was 5.52 x10E6/uL, the HEMATOCRIT [2] was 35.82% and the HEMOGLOBIN [2] was 13.25 G/DL. For the same compound, the “LEUKOCYTE COUNT” value [2] was 14.6 x10E3/uL, the LYMPHOCYTE [2] was 84.5% and the “MEAN CORPUSCULAR HEMOGLOBIN” value [2] was 24.05 pg. The “MEAN CORPUSCULAR HEMOGLOBIN CONCENTRATION” value [2] was 36.98 G/DL, the “MEAN CORPUSCULAR VOLUME” value [2] was 64.97 fL and the MONOCYTE [2] was 0.5%. The NEUTROPHIL [2] was 13.67%, the “NUCLEATED RED BLOOD CELLS” value [2] was 0 /100WBC and the “PLATELET COUNT” value [2] was 1297.83 x10E3/uL. The “ALANINE AMINOTRANSFERASE” value [2] was 51.17 u/L, the ALBUMIN [2] was 4.08 G/DL and the “ALKALINE PHOSPHATASE” value [2] was 393.17 u/L. The “ASPARTATE AMINOTRANSFERASE” value [2] was 111 u/L, the “BLOOD UREA NITROGEN” value [2] was 18.17 mg/dL and the “CARBON DIOXIDE” value [2] was 25 mmol/L. The CHLORIDE [2] was 105.17 MEQ/L, the CHOLESTEROL [2] was 65.5 mg/dL and the “CREATINE PHOSPHOKINASE” value [2] was 911.5 u/L. For the same compound, the CREATININE [2] was 0.21 mg/dL, the GLUCOSE [2] was 183 mg/dL and the “LACTATE DEHYDROGENASE” value [2] was 189 u/L. It also gave an LIPASE [2] of 8.33 u/L, a PHOSPHORUS [2] of 12.78 mg/dL and a POTASSIUM [2] of 6.05 MEQ/L. The SODIUM [2] was 144.57 MEQ/L, the “TOTAL BILIRUBIN” value [2] was 0.25 mg/dL and the “TOTAL PROTEIN” value [2] was 5.83 G/DL. For the same compound, the “URIC ACID” value [2] was 1.58 mg/dL, the “ABSOLUTE BASOPHIL” value [3] was 0 CELLS/uL and the “ABSOLUTE EOSINOPHIL” value [3] was 245 CELLS/uL. The “ABSOLUTE LYMPHOCYTE” value [3] was 12670.67 CELLS/uL, the “ABSOLUTE MONOCYTE” value [3] was 0 CELLS/uL and the “ABSOLUTE SEGMENTED NEUTROPHIL” value [3] was 1651 CELLS/uL. For the same compound, the BASOPHIL [3] was 0%, the EOSINOPHIL [3] was 1.67% and the “ERYTHROCYTE COUNT” value [3] was 5.81 x10E6/uL. For the same compound, the HEMATOCRIT [3] was 35.97%, the HEMOGLOBIN [3] was 13.47 G/DL and the “LEUKOCYTE COUNT” value [3] was 14.57 x10E3/uL. For the same compound, the LYMPHOCYTE [3] was 87.33%, the “MEAN CORPUSCULAR HEMOGLOBIN” value [3] was 23.27 pg and the “MEAN CORPUSCULAR HEMOGLOBIN CONCENTRATION” value [3] was 37.43 G/DL. The “MEAN CORPUSCULAR VOLUME” value [3] was 62.03 fL, the MONOCYTE [3] was 0% and the NEUTROPHIL [3] was 11%. The “NUCLEATED RED BLOOD CELLS” value [3] was 0 /100WBC, the “PLATELET COUNT” value [3] was 1364.67 x10E3/uL and the “ALANINE AMINOTRANSFERASE” value [3] was 47.67 u/L. The ALBUMIN [3] was 4.2 G/DL, the “ALKALINE PHOSPHATASE” value [3] was 292.33 u/L and the “ASPARTATE AMINOTRANSFERASE” value [3] was 78.67 u/L. For the same compound, the “BLOOD UREA NITROGEN” value [3] was 14.67 mg/dL, the “CARBON DIOXIDE” value [3] was 25 mmol/L and the CHLORIDE [3] was 102.33 MEQ/L. For the same compound, the CHOLESTEROL [3] was 80.67 mg/dL, the “CREATINE PHOSPHOKINASE” value [3] was 290.33 u/L and the CREATININE [3] was 0.19 mg/dL. For the same compound, the GLUCOSE [3] was 173.67 mg/dL, the “LACTATE DEHYDROGENASE” value [3] was 127.33 u/L and the LIPASE [3] was 8.33 u/L. It also gave a PHOSPHORUS [3] of 12.7 mg/dL, a POTASSIUM [3] of 5.88 MEQ/L and an SODIUM [3] of 145.47 MEQ/L. For the same compound, the “TOTAL BILIRUBIN” value [3] was 0.2 mg/dL, the “TOTAL PROTEIN” value [3] was 6.23 G/DL and the “URIC ACID” value [3] was 1.67 mg/dL.
